Results published in US9062046B2, “Substituted imidazoquinoline derivatives as kinase inhibitors” (Piramal Enterprises Limited, priority 2011, dated 2015).

Experiments:
[1] = system: A2780 (ovarian cell line); experiment: Cytotoxicity assay (propidium iodide assay), A2780; format: cell-based; conditions: A2780 cells, 48 h treatment; for IC50 / inhibition at 1 µM: Homo sapiens
Summary of the method: (§1)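 A2780 and PC3 cells, 3000/well, were treated with compound for 48 h after 18-24 h attachment. After washing, propidium iodide 7 μg/ml was added, followed by freeze-thaw at −70 °C and a fluorescence read. Viability was taken relative to untreated wells, with IC50 derived from the curves.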

[2] = system: PC3 (prostate cell line); experiment: Cytotoxicity assay (propidium iodide assay), PC3; format: cell-based; conditions: PC3 cells, 48 h treatment; for IC50 / inhibition at 1 µM: Homo sapiens, PC-3
Summary of the method: as §1

| SMILES | IC50 [1] [µM] | IC50 [2] [µM] | inhibition at 1 µM ([1]; 1 μM) [%] | inhibition at 1 µM ([2]; 1 μM) [%] | other results |
| --- | --- | --- | --- | --- | --- |
| COc1ncc(-c2ccc3ncc4c(c3c2)n(-c2cncc(-c3ccccc3)c2)c(=NC#N)n4C)cc1N [Example 93, N-(8-(5-amino-6-methoxypyridin-3-yl)-3-methyl-1-(5-phenylpyridin-3-yl)-1H-imidazo[4,5-c]quinolin-2(3H)-ylidene)cyanamide] | 0.5 to 2 | 0.5 to 2 |  |  |  |
| Cn1c(=NC#N)n(-c2ccc(C(C)(C)C#N)cc2)c2c3cc(-c4ccc5cc[nH]c5c4)ccc3ncc21 [Example 94, N-(1-(4-(2-cyanopropan-2-yl)phenyl)-8-(1H-indol-6-yl)-3-methyl-1H-imidazo[4,5-c]quinolin-2(3H)-ylidene)cyanamide] | ≤ 0.5 | ≤ 0.5 |  |  |  |
| COc1cc(OC)cc(-n2c(=NC#N)n(C)c3cnc4ccc(-c5cnc(N)c(C(F)(F)F)c5)cc4c32)c1 [Example 97, N-(8-(6-amino-5-(trifluoromethyl)pyridin-3-yl)-1-(3,5-dimethoxyphenyl)-3-methyl-1H-imidazo[4,5-c]quinolin-2(3H)-ylidene)cyanamide] |  |  | ≥ 70 | ≥ 70 |  |
| COc1ccc(-n2c(=NC#N)n(C)c3cnc4ccc(-c5cnc(N)c(C(F)(F)F)c5)cc4c32)c(OC)n1 [Example 98, N-(8-(6-amino-5-(trifluoromethyl)pyridin-3-yl)-1-(2,6-dimethoxypyridin-3-yl)-3-methyl-1H-imidazo[4,5-c]quinolin-2(3H)-ylidene)cyanamide] |  |  | ≥ 70 | ≥ 70 |  |
| COc1cc(OC)cc(-n2c(=NC#N)n(C)c3cnc4ccc(-c5cnc(OC)c(N)c5)cc4c32)c1 [Example 99, N-(8-(5-amino-6-methoxypyridin-3-yl)-1-(3,5-dimethoxyphenyl)-3-methyl-1H-imidazo[4,5-c]quinolin-2(3H)-ylidene)cyanamide] | ≤ 0.5 | 0.5 to 2 |  |  |  |
| COc1ccc(-n2c(=NC#N)n(C)c3cnc4ccc(-c5cnc6ccccc6c5)cc4c32)c(OC)c1 [Example 100, N-(1-(2,4-dimethoxyphenyl)-3-methyl-8-(quinolin-3-yl)-1H-imidazo[4,5-c]quinolin-2(3H)-ylidene)cyanamide] | ≤ 0.5 | ≤ 0.5 |  |  |  |
| COc1ccc(-n2c(=NC#N)n(C)c3cnc4ccc(-c5cccnc5)cc4c32)c(OC)c1 [Example 101, N-(1-(2,4-dimethoxyphenyl)-3-methyl-8-(pyridin-3-yl)-1H-imidazo[4,5-c]quinolin-2(3H)-ylidene)cyanamide] | ≤ 0.5 | ≤ 0.5 |  |  |  |
| COc1cc(OC)cc(-n2c(=NC#N)n(C)c3cnc4ccc(-c5cccnc5)cc4c32)c1 [Example 102, N-(1-(3,5-dimethoxyphenyl)-3-methyl-8-(pyridin-3-yl)-1H-imidazo[4,5-c]quinolin-2(3H)-ylidene)cyanamide] |  |  | ≥ 70 | < 30 |  |
| COc1ccc(-n2c(=NC#N)n(C)c3cnc4ccc(-c5ccc6ncccc6c5)cc4c32)c(OC)c1 [Example 103, N-(1-(2,4-dimethoxyphenyl)-3-methyl-8-(quinolin-6-yl)-1H-imidazo[4,5-c]quinolin-2(3H)-ylidene)cyanamide] | ≤ 0.5 | ≤ 0.5 |  |  |  |
| Cn1c(=NC#N)n(-c2ccc(OC(F)(F)F)cc2)c2c3cc(-c4cnc(N)c(C(F)(F)F)c4)ccc3ncc21 [Example 105, N-(8-(6-amino-5-(trifluoromethyl)pyridin-3-yl)-3-methyl-1-(4-(trifluoromethoxy)phenyl)-1H-imidazo[4,5-c]quinolin-2(3H)-ylidene)cyanamide] | ≤ 0.5 | ≤ 0.5 |  |  |  |
| COc1ncc(-c2ccc3ncc4c(c3c2)n(-c2ccc(OC(F)(F)F)cc2)c(=NC#N)n4C)cc1N [Example 106, N-(8-(5-amino-6-methoxypyridin-3-yl)-3-methyl-1-(4-(trifluoromethoxy)phenyl)-1H-imidazo[4,5-c]quinolin-2(3H)-ylidene)cyanamide] | ≤ 0.5 | ≤ 0.5 |  |  |  |
| Cn1c(=NC#N)n(-c2ccc(OC(F)(F)F)cc2)c2c3cc(-c4cccnc4)ccc3ncc21 [Example 108, N-(3-methyl-8-(pyridin-3-yl)-1-(4-(trifluoromethoxy)phenyl)-1H-imidazo[4,5-c]quinolin-2(3H)-ylidene)cyanamide] | ≤ 0.5 | 0.5 to 2 |  |  |  |
| Cn1c(=NC#N)n(-c2ccc(OC(F)(F)F)cc2)c2c3cc(-c4ccncc4)ccc3ncc21 [Example 109, N-(3-methyl-8-(pyridin-4-yl)-1-(4-(trifluoromethoxy)phenyl)-1H-imidazo[4,5-c]quinolin-2(3H)-ylidene)cyanamide] | ≤ 0.5 | 0.5 to 2 |  |  |  |
| Cc1cc(-c2ccc3ncc4c(c3c2)n(-c2ccc(C(C)(C)C#N)nc2)c(=NC#N)n4C)cnc1N1CCN(C(=O)OC(C)(C)C)CC1 [Example 119, tert-butyl 4-(5-(2-(cyanoimino)-1-(6-(2-cyanopropan-2-yl)pyridin-3-yl)-3-methyl-2,3-dihydro-1H-imidazo[4,5-c]quinolin-8-yl)-3-methylpyridin-2-yl)piperazine-1-carboxylate] |  |  | ≥ 70 | ≥ 70 |  |
| Cn1c(=NC#N)n(-c2ccc(C(C)(C)C#N)nc2)c2c3cc(-c4ccnc(N5CCOCC5)c4Cl)ccc3ncc21 [Example 121, N-(8-(3-chloro-2-morpholinopyridin-4-yl)-1-(6-(2-cyanopropan-2-yl)pyridin-3-yl)-3-methyl-1H-imidazo[4,5-c]quinolin-2(3H)-ylidene)cyanamide] |  |  | < 30 | < 30 |  |
| Cn1c(=NC#N)n(-c2ccc(C(C)(C)C#N)nc2)c2c3cc(-c4cnc(NC(=O)OC(C)(C)C)c(C(F)(F)F)c4)ccc3ncc21 [Example 122, tert-butyl 5-(2-(cyanoimino)-1-(6-(2-cyanopropan-2-yl)pyridin-3-yl)-3-methyl-2,3-dihydro-1H-imidazo[4,5-c]quinolin-8-yl)-3-(trifluoromethyl)pyridin-2-ylcarbamate] |  |  | ≥ 70 | 30 to 70 |  |
| COc1ccc(-n2c(=NC#N)n(C)c3cnc4ccc(-c5cnc(NC(=O)OC(C)(C)C)c(C(F)(F)F)c5)cc4c32)cn1 [Example 123, tert-butyl 5-(2-(cyanoimino)-1-(6-methoxypyridin-3-yl)-3-methyl-2,3-dihydro-1H-imidazo[4,5-c]quinolin-8-yl)-3-(trifluoromethyl)pyridin-2-ylcarbamate] | ≤ 0.5 | ≤ 0.5 |  |  |  |
| COc1ncc(-c2ccc3ncc4c(c3c2)n(-c2ccc(C(C)(C)C#N)cc2)c(=NC#N)n4C)cc1NS(=O)(=O)c1ccccc1 [Example 124, N-(5-(2-(cyanoimino)-1-(4-(2-cyanopropan-2-yl)phenyl)-3-methyl-2,3-dihydro-1H-imidazo[4,5-c]quinolin-8-yl)-2-methoxypyridin-3-yl)benzenesulfonamide] |  |  | ≥ 70 | ≥ 70 |  |
| COc1ncc(-c2ccc3ncc4c(c3c2)n(-c2ccc(C(C)(C)C#N)nc2)c(=NC#N)n4C)cc1NS(C)(=O)=O [Example 126, N-(5-(2-(cyanoimino)-1-(6-(2-cyanopropan-2-yl)pyridin-3-yl)-3-methyl-2,3-dihydro-1H-imidazo[4,5-c]quinolin-8-yl)-2-methoxypyridin-3-yl)methane sulfonamide] | ≤ 0.5 | ≤ 0.5 |  |  |  |
| COc1ncc(-c2ccc3ncc4c(c3c2)n(-c2ccc(C(C)(C)C#N)cc2)c(=NC#N)n4C)cc1NS(C)(=O)=O [Example 127, N-(5-(2-(cyanoimino)-1-(4-(2-cyanopropan-2-yl)phenyl)-3-methyl-2,3-dihydro-1H-imidazo[4,5-c]quinolin-8-yl)-2-methoxypyridin-3-yl)methanesulfonamide] |  |  | ≥ 70 | 30 to 70 |  |
| CC(=O)Nc1cc(C)c(-c2ccc3ncc4c(c3c2)n(-c2ccc(C(C)(C)C#N)nc2)c(=NC#N)n4C)cn1 [Example 128, N-(5-(2-(cyanoimino)-1-(6-(2-cyanopropan-2-yl)pyridin-3-yl)-3-methyl-2,3-dihydro-1H-imidazo[4,5-c]quinolin-8-yl)-4-methylpyridin-2-yl)acetamide] |  |  | 30 to 70 | < 30 |  |
| CN(C)c1ncc(-c2ccc3ncc4c(c3c2)n(-c2ccc(C(C)(C)C#N)cc2)c(=NC#N)n4C)cc1C(F)(F)F [Example 129, N-(1-(4-(2-cyanopropan-2-yl)phenyl)-8-(6-(dimethylamino)-5-(trifluoromethyl)pyridin-3-yl)-3-methyl-1H-imidazo[4,5-c]quinolin-2(3H)-ylidene) cyanamide] |  |  |  |  | % Inhibition at 1 μM, A2780 ([1]; 1 μM): +++ (≧70%); % Inhibition at 1 μM, PC3 ([2]; 1 μM): ++ (≧30% upto 70%) |
| CC(=O)N(C(C)=O)c1ncc(-c2ccc3ncc4c(c3c2)n(-c2ccc(C(C)(C)C#N)cc2)c(=NC#N)n4C)cc1C(F)(F)F [Example 131, N-acetyl-N-(5-(2-(cyanoimino)-1-(4-(2-cyanopropan-2-yl)phenyl)-3-methyl-2,3-dihydro-1H-imidazo[4,5-c]quinolin-8-yl)-3-(trifluoromethyl)pyridin-2-yl)acetamide] |  |  | 30 to 70 | 30 to 70 |  |
| CC(=O)N(C(C)=O)c1ncc(-c2ccc3ncc4c(c3c2)n(-c2ccc(C(C)(C)C#N)nc2)c(=NC#N)n4C)cc1C(F)(F)F [Example 132, N-acetyl-N-(5-(2-(cyanoimino)-1-(6-(2-cyanopropan-2-yl)pyridin-3-yl)-3-methyl-2,3-dihydro-1H-imidazo[4,5-c]quinolin-8-yl)-3-(trifluoromethyl)pyridin-2-yl)acetamide] |  |  | < 30 | < 30 |  |
| COc1ncc(-c2ccc3ncc4c(c3c2)n(-c2ccc(C(C)(C)C#N)cc2)c(=NC#N)n4C)cc1NS(=O)(=O)c1ccc(F)cc1F [Example 135, N-(5-(2-(cyanoimino)-1-(4-(2-cyanopropan-2-yl)phenyl)-3-methyl-2,3-dihydro-1H-imidazo[4,5-c]quinolin-8-yl)-2-methoxypyridin-3-yl)-2,4-difluorobenzenesulfonamide] |  |  | ≥ 70 | ≥ 70 |  |
